Assays:
[1] = target: Ribosomal protein S6 kinase alpha-5 (Homo sapiens) (UniProt O75582); assay: Residual activity of RPS6KA5 at 1 uM by microplate scintillation counting
[2] = target: T1, Inhibitor of nuclear factor kappa-B kinase subunit epsilon (Homo sapiens) (UniProt Q14164); assay: Residual activity of IKKepsilon at 0.1 uM by microplate scintillation counting
T1 sequence (whole entry): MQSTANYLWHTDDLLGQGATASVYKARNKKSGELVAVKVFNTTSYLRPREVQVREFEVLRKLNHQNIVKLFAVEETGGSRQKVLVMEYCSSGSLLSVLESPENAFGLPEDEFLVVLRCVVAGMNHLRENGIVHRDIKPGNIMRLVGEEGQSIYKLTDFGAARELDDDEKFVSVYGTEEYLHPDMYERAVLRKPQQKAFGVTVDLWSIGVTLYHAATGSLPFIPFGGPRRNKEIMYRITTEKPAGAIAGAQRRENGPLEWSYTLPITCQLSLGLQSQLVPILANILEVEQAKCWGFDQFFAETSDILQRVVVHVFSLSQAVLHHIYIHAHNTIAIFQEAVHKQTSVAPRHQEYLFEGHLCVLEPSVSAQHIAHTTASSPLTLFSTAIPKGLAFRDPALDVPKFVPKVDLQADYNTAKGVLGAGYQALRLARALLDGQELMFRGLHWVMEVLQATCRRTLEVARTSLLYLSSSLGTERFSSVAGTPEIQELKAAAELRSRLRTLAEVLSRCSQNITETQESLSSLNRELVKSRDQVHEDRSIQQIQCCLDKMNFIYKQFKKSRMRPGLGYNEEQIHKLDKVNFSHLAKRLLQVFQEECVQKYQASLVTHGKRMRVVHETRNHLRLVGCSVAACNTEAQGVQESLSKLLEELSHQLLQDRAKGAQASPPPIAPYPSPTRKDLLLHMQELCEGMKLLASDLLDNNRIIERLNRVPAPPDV

[3] = target: T2, Muscle, skeletal receptor tyrosine-protein kinase (Homo sapiens) (UniProt O15146); assay: Residual activity of MUSK at 0.1 uM by microplate scintillation counting
T2 sequence (whole entry): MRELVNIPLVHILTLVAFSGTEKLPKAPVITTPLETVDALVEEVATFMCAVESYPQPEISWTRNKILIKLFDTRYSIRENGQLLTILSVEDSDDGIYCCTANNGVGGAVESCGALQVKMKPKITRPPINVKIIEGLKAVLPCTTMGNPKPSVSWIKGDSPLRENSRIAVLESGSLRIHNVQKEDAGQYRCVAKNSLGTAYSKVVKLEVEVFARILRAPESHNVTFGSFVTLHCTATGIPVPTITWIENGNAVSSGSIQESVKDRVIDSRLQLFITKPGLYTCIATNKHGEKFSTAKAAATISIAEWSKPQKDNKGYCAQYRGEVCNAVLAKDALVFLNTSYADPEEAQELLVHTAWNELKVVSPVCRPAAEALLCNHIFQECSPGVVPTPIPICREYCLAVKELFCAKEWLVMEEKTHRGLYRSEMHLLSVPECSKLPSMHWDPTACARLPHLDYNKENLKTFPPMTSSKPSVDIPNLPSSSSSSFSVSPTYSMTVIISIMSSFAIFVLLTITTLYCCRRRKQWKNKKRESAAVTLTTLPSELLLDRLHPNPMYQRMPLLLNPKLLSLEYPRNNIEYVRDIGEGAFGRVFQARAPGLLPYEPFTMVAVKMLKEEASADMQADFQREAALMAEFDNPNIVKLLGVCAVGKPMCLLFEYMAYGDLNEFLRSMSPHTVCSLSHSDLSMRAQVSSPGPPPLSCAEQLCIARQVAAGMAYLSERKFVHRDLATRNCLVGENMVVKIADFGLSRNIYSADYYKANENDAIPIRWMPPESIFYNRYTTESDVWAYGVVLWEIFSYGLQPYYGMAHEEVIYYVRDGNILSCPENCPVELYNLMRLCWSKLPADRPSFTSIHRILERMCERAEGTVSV

[4] = target: T3, Eukaryotic elongation factor 2 kinase (Homo sapiens) (UniProt O00418); assay: Residual activity of EEF2K at 1 uM by microplate scintillation counting
T3 sequence (whole entry): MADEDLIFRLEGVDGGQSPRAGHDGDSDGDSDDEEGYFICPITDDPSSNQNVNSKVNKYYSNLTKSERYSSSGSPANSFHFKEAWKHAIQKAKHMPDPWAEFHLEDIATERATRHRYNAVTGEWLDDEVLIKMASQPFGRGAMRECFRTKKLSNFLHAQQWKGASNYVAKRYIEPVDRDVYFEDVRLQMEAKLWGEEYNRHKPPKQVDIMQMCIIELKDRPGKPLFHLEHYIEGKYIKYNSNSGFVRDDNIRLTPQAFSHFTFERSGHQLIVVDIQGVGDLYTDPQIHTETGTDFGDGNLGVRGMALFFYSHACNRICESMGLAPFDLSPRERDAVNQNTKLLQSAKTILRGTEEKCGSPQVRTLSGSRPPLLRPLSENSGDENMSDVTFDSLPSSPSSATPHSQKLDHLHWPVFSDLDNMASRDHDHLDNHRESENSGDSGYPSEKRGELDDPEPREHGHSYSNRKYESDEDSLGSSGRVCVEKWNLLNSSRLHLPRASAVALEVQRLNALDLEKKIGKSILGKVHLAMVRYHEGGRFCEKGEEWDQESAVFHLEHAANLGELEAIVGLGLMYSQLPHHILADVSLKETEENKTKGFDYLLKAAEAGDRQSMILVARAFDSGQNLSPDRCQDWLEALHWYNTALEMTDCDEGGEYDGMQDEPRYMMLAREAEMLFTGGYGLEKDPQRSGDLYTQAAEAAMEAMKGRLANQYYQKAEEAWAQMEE

[5] = Residual activity of S6K at 1 uM by microplate scintillation counting

Ribosomal protein S6 kinase alpha-5 (Homo sapiens), sequence (O75582 whole entry, looked up): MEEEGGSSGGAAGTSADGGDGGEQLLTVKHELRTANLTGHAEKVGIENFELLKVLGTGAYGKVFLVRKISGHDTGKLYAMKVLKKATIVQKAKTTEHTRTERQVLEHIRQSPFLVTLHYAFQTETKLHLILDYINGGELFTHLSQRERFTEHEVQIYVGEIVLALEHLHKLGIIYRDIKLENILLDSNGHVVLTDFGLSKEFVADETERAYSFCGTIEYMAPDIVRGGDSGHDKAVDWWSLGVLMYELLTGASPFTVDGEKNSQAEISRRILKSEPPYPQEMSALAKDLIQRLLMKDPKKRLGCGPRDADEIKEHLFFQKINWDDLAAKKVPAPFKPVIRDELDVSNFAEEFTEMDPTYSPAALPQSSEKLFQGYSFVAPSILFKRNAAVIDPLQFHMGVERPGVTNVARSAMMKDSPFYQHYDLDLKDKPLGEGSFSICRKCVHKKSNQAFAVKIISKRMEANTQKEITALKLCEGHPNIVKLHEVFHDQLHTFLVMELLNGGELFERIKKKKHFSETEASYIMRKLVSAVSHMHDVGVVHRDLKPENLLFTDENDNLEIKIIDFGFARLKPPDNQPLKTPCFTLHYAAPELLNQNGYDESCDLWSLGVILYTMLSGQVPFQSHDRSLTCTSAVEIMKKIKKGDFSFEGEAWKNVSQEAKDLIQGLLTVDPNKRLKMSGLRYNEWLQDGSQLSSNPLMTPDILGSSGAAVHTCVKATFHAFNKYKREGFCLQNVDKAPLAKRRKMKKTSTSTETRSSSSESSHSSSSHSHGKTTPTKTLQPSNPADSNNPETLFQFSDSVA

Row | Compound | residual activity [1] [%] | residual activity [2] [%] | residual activity [3] [%] | residual activity [4] [%] | residual activity [5] [%]
1 | COc1cc2c(Oc3ccc(-c4nc5ccccc5s4)cc3)ncnc2cc1OCCCN1CCN(C)CC1 | 81 | 91 | 95 | 82 | 69
2 | COc1cc2c(Oc3ccc(-c4nc5ccccc5s4)cc3F)ncnc2cc1OCCCN1CCN(C)CC1 | 71 | 87 | 96 | 90 | 95
3 | COc1cc2c(Oc3ccc(-c4nc5ccccc5s4)cc3)ncnc2cc1OCCCN1CCCC1 | 87 | 92 | 97 | 86 | 75
